In article PMC9964244, “Effects of Dimerization, Dendrimerization, and Chirality in p-BthTX-I Peptide Analogs on the Antibacterial Activity and Enzymatic Inhibition of the SARS-CoV-2 PL^pro Protein” (Pharmaceutics, 2023):
Values joined by “and” are separate entries in the source; they are usually repeats but may differ in a detail not shown here. Equal entries are not always repeated. Where two headings read alike, the source gives them in different places. Bridge positions count the residues as written; N and C are the ends. Square brackets hold non-standard residues; d marks the D form. Ends that are not written are not given here. Peptide text beside a SMILES is read from it. I, II: the chains in the order shown.

What was measured:
E. faecalis ATCC 29212 = assay: MIC/MBC, broth microdilution and subculture on CA-MH agar; format: cell-based; design: key to Act (antibacterial activity): Bc, bactericidal; Bs, bacteriostatic; settings: for MIC: broth microdilution; for MIC / MBC: triplicate, mode; for MBC: subculture on CA-MH agar, 37 °C, 24 h
Description: (§1) Bacterial isolates from the American Type Culture Collection (ATCC) were obtained from the Collection of Reference Bacteria on Health Surveillance, Oswaldo Cruz Foundation (FIOCRUZ) after phenotypic and molecular quality control and were registered at SISGEN under the number ADB556B. The minimum inhibitory concentration (MIC) was determined as previously described by Santos-Filho et al., 2021 [17], using the broth microdilution method. The MIC was the lowest concentration that inhibited microbial growth. […] MBC was defined as the lowest peptide concentration with no visible growth on the plate. […] The assay was performed in triplicate, and the values represent the mode of the obtained results.
(§2) Thus, to assess the relevance of the antimicrobial effect of p-Bth analogs, their Minimum Inhibitory Concentration (MIC) and Minimum Bactericidal Concentration (MBC) were analyzed against relevant bacteria. The evaluated strains were the Gram-positives: S. aureus ATCC 25923, S. epidermidis ATCC 35984, E. faecalis ATCC 29212, and E. faecium ATCC […] (Table 1); and the Gram-negatives: K. pneumoniae ATCC 700603, E. coli ATCC 25922, A. baumannii ATCC 19606, and P. aeruginosa ATCC 27853 (Table 2).

[1] = system: S. epidermidis ATCC 35984; assay: as above; format: cell-based; design: key to Act (antibacterial activity): Bc, bactericidal; Bs, bacteriostatic; settings: for MIC: broth microdilution; for MIC / MBC: triplicate, mode; for MBC: subculture on CA-MH agar, 37 °C, 24 h
Description: as §1, §2

E. coli ATCC 25922 = assay: as above; format: cell-based; design: key to Act (antibacterial activity): Bc, bactericidal; Bs, bacteriostatic; settings: for MIC: broth microdilution; for MIC / MBC: triplicate, mode; for MBC: subculture on CA-MH agar, 37 °C, 24 h
Description: as §1, §2

SARS-CoV-2 PL^pro [2] = biological target: T1, SARS-CoV-2 PL^pro (Severe acute respiratory syndrome coronavirus 2, UniProt P0DTD1); assay: PL^pro enzymatic inhibition assay; format: biochemical; settings: PL^pro from SARS-CoV-2; for inhibition at 10 µM: peptide 10 µM; for IC50: two independent experiments
T1 construct: made in house

S. aureus ATCC 25923 = assay: MIC/MBC, broth microdilution and subculture on CA-MH agar; format: cell-based, Staphylococcus aureus; design: key to Act (antibacterial activity): Bc, bactericidal; Bs, bacteriostatic; settings: for MIC: broth microdilution; for MIC / MBC: triplicate, mode; for MBC: subculture on CA-MH agar, 37 °C, 24 h
Description: as §1, §2

E. faecium ATCC 700221 = assay: as above; format: cell-based, Enterococcus faecium; design: key to Act (antibacterial activity): Bc, bactericidal; Bs, bacteriostatic; settings: for MIC: broth microdilution; for MIC / MBC: triplicate, mode; for MBC: subculture on CA-MH agar, 37 °C, 24 h
Description: as §1, §2

A. baumannii ATCC 19606 = assay: as above; format: cell-based, Acinetobacter baumannii; design: key to Act (antibacterial activity): Bc, bactericidal; Bs, bacteriostatic; settings: for MIC: broth microdilution; for MIC / MBC: triplicate, mode; for MBC: subculture on CA-MH agar, 37 °C, 24 h
Description: as §1, §2

P. aeruginosa ATCC 27853 = assay: as above; format: cell-based, Pseudomonas aeruginosa; design: key to Act (antibacterial activity): Bc, bactericidal; Bs, bacteriostatic; settings: for MBC: subculture on CA-MH agar, 37 °C, 24 h; for MBC / MIC: triplicate, mode; for MIC: broth microdilution
Description: as §1, §2

[3] = system: K. pneumoniae ATCC 700603; assay: as above; format: cell-based, Klebsiella pneumoniae; design: key to Act (antibacterial activity): Bc, bactericidal; Bs, bacteriostatic; settings: for MIC: broth microdilution; for MIC / MBC: triplicate, mode; for MBC: subculture on CA-MH agar, 37 °C, 24 h
Description: as §1, §2

SARS-CoV-2 PL^pro [4] = biological target: T1, SARS-CoV-2 PL^pro; settings: PL^pro from SARS-CoV-2, ref 19 (Freire et al., 2021), cited from earlier work
Description: Table 3 PL^pro activity by peptide analogs of p-BThTX-I at the concentration of 10 μM and IC50 values. Representative concentration–response inhibition curves against PL^pro from SARS-CoV-2 are presented in the Supplementary Material (Figure S7). | column: Inhibition (%) at 10 µM; IC50 μM

SARS-CoV-2 = settings: Vero cells; cited from earlier work
Excerpt: In December 2019, the first case of viral infection with a new coronavirus was reported in China, which was later named severe acute respiratory syndrome coronavirus 2 (SARS-CoV-2), and the disease caused by this was named coronavirus-2019 or COVID-19 by the WHO. This disease has taken on great proportions, causing a pandemic scenario and great global concern. Even with the improvements in disease control, there is still a need for new, specific antiviral therapeutic options. As antimicrobial peptides also have antiviral action, the L-dimer, D-dimer and L-tetramer, in addition to ...

erythrocytes = assay: Hemolysis assay; format: cell-based; settings: at 512 µg/mL, 1 h, 37 °C, Triton X-100 1% positive control, duplicate
Description: Peptide hemolytic activity was determined as previously described^15. Peptides were incubated with erythrocytes in the range from 512 μg/mL to 0.06 μg/mL for 1 h at 37 °C. Triton X-100 1% was used as a positive control for hemolysis. Assays were performed in duplicate. The Research Ethics Committee approved this project under the number 90291518.4.0000.5426.

[5] = MBC/MIC ratio >4 suggests bacteriostatic

| Compound | MIC (E. faecalis ATCC 29212) | MBC (E. faecalis ATCC 29212) [µg/mL] | MIC [1] | MBC [1] [µg/mL] | MIC (E. coli ATCC 25922) | MBC (E. coli ATCC 25922) [µg/mL] | inhibition at 10 µM (SARS-CoV-2 PL^pro [2]) [%] | IC50 (SARS-CoV-2 PL^pro [2]) [nM] | MIC (S. aureus ATCC 25923) | MBC (S. aureus ATCC 25923) [µg/mL] | MIC (E. faecium ATCC 700221) [µM] | MBC (E. faecium ATCC 700221) [µg/mL] | MIC (A. baumannii ATCC 19606) | MBC (A. baumannii ATCC 19606) [µg/mL] | MBC (P. aeruginosa ATCC 27853) [µg/mL] | MIC [3] | MBC [3] [µg/mL] | MIC (P. aeruginosa ATCC 27853) | further results |
| --- | --- | --- | --- | --- | --- | --- | --- | --- | --- | --- | --- | --- | --- | --- | --- | --- | --- | --- | --- |
| CC(C)C[C@H](NC(=O)[C@H](Cc1c[nH]cn1)NC(=O)[C@H](Cc1ccc(O)cc1)NC(=O)[C@H](CCCNC(=N)N)NC(=O)[C@H](Cc1ccc(O)cc1)NC(=O)[C@H](CCCCN)NC(=O)[C@@H](N)CCCCN)C(=O)N[C@@H](CCCCN)C(=O)N1CCC[C@H]1C(=O)N[C@@H](Cc1ccccc1)C(N)=O [L-monomer] (H-KKYRYHLKPF-NH2) | >371 µM | >512 | >371 µM | >512 | >371 µM | >512 | 93.3 | 2100 ± 100 | >371 µM | >512 | >371 | >512 | >371 µM | >512 | >512 | >371 µM | >512 | – | – |
| I: KKYRYHLKPFKK-NH2 / II: KKYRYHLKPFK / III: KKYRYHLKPF / IV: KKYRYHLKPF (amide I:11-IV:C, I:12-II:C, II:11-III:C) [L-tetramer] | 10 µM and 64 μg/mL | 128 | 16 µg/mL | 32 | 32 μg/mL and 5 µM | >128 | – | – | 64 μg/mL and 10 µM | 256 | – | 32 | 5 µM and 32 μg/mL | 64 | 64 | 32 μg/mL and 5 µM | >128 | 32 μg/mL and 5 µM | Act (antibacterial activity) (E. faecalis ATCC 29212; [5]): Bc; Act (antibacterial activity) [1, 5]: Bc; Act (antibacterial activity) (E. coli ATCC 25922; [5]): Bs; Act (antibacterial activity) (S. aureus ATCC 25923; [5]): Bc; Act (antibacterial activity) (E. faecium ATCC 700221; [5]): Bc; Act (antibacterial activity) (A. baumannii ATCC 19606; [5]): Bc; Act (antibacterial activity) (P. aeruginosa ATCC 27853; [5]): Bc; Inhibition (%) at 10 µM (SARS-CoV-2 PL^pro [4]; peptide 10 µM): 98.40 ± 0.00%; IC50 (SARS-CoV-2 PL^pro [4]): 1400 ± 20 nM; Act (antibacterial activity) [3, 5]: Bs; percentage inhibition of SARS-CoV-2 infection (SARS-CoV-2): 54% |
| I: [dK][dK][dY][dR][dY][dH][dL][dK][dP][dF]KK-NH2 / II: [dK][dK][dY][dR][dY][dH][dL][dK][dP][dF]K / III: [dK][dK][dY][dR][dY][dH][dL][dK][dP][dF] / IV: [dK][dK][dY][dR][dY][dH][dL][dK][dP][dF] (amide I:11-IV:C, I:12-II:C, II:11-III:C) [D-tetramer] | 5 µM | 32 | 2 µM | 16 | 5 µM | >128 | 94 ± 3 | 2700 ± 500 | 10 µM | 64 | 2 | 16 | 5 µM | 32 | 64 | 5 µM | 32 | 5 µM | hemolysis (erythrocytes): 28% |
